The nature of data set [1]: Intravenous PK in rats, conjugate vs unconjugated d-methylphenidate. In kind it is in vivo. Particulars: analyte d-methylphenidate.
A short description of data set [2]: Oral PK in rats, conjugate vs unconjugated d-methylphenidate (LC-MS/MS). In kind it is in vivo. Particulars: analyte d-methylphenidate, […] d-MPH content, hydrochloride. The procedure:
(§1) The plasma concentrations of d-methylphenidate were measured by LC-MS/MS over time. The oral plasma concentrations of d-methylphenidate released from d-threo-MPH-CO2CH2-nicotinoyl-L-Ser were compared with unconjugated d-methylphenidate after oral administration in rats.
The human equivalent dose for the conjugate was 0.8 mg/kg as compared to 0.4 mg/kg for unconjugated d-methylphenidate.

Data set [3] in a line: Oral PK in rats of d- and l-isomers (unconjugated MPH, L-Ser and L-Thr conjugates) at equimolar doses. Particulars: for Cmax: equimolar doses; for d:l Ratio AUC / d:l Ratio Cmax / d:l Ratio Tmax: d-isomer vs l-isomer; for d:l Ratio AUC: mean AUC; for d:l Ratio Cmax: mean Cmax. Here is the method: In another embodiment, the following compounds were dosed orally in rats at equimolar doses: d-MPH.HCl, l-MPH.HCl, d-MPH-CO2CH2-nicotinoyl-L-Ser, l-MPH-CO2CH2-nicotinoyl-L-Ser, d-MPH-CO2CH2-nicotinoyl-L-Thr, and l-MPH-CO2CH2-nicotinoyl-L-Thr.

Data set [4] can be described thus: Intranasal PK in rats, conjugate vs unconjugated d-methylphenidate. In kind it is in vivo. Particulars: analyte d-methylphenidate. The procedure: as §1
As shown in FIG. 5 and Table 10, after 4.75 mg conjugate was intranasally administered to rats, plasma concentrations of d-methylphenidate released from the conjugate are substantially flat from about 0 to about 1 hour following intranasal administration in a rat. […] Conjugated d-methylphenidate was about 6% AUC and 5% Cmax of unconjugated d-methylphenidate.

Data set [5] can be described thus: Human single-dose PK of 32 mg d-MPH-CO2CH2-nicotinoyl-L-Ser oral liquid, fasted. Particulars: single 32 mg oral liquid. From the text:
Twenty-four (24) healthy volunteers were enrolled in this open-label, single-dose, two-treatment, two-period PK trial.

Data set [6] in a line: Human single-dose PK of 60 mg d-MPH-CO2CH2-nicotinoyl-L-Ser chloride capsules, fasted and fed. Type of data set: in vivo. To be noted: for AUC(0-inf) / half-life / AUC(0-t) / Tmax / Cmax: both sexes, plasma, analyte d-MPH-CO2CH2-nicotinoyl-L-Ser; for Tmax: read-out: Tmax (median). The procedure: A human study was conducted to evaluate the pharmacokinetics of d-MPH-CO2CH2-nicotinoyl-L-Ser and d-methylphenidate after oral administration of 60 mg d-MPH-CO2CH2-nicotinoyl-L-Ser chloride gelatin capsules in healthy volunteers under fasted and fed conditions. Fourteen (14) subjects were enrolled in this phase 1, open-label, single dose, two-period, randomized, crossover study. Eligible subjects included healthy male and female volunteers between the age of 18 and 55 years with a body mass index (BMI) between 18 and 32 kg/m^2 and a body weight between 50 and 100 kg at screening.
Two single-dose treatments were administered with a minimum 96-hour washout period between doses. Blood samples for pharmacokinetics were collected pre-dose and at 0.5, 0.75, 1, 1.5, 2, 2.5, 3, 3.5, 4.5, 6, 8, 10, 12, 16, 24, and 36 hours±5 minutes post-dose, in each treatment period.

Data set [7] is described as follows: Human single- and multiple-dose PK of d-MPH HCl/conjugate dose mixtures vs Concerta 54 mg, once daily for 7 days, fasted. In kind it is in vivo. From the text: Forty-eight (48) healthy volunteers (12 per treatment arm) were enrolled in this open-label, single- and multiple-dose, four-treatment, one-period parallel PK trial.
Eligible subjects included healthy male and female volunteers between the age of 18 and 55 years with a body mass index (BMI) between 18 and 32 kg/m^2 and a body weight between 60 and 100 kg at screening. The primary objective of the study was to assess the single and multiple dose pharmacokinetics of d-MPH-CO2CH2-nicotinoyl-L-Ser and d-methylphenidate following multiple doses of different combinations of d-methylphenidate HCl/d-MPH-CO2CH2-nicotinoyl-L-Ser Chloride administered orally once per day for 7 days in healthy volunteers under fasted conditions, compared to the same dosing regimen with a Concerta® tablet. After the 1st dose of study drug (Day 1), blood samples for PK were collected at pre-dose (0 hour; within 1 hour prior to dosing), and at 0.5, 1, 1.5, 2, 2.5, 3, 4.5, 6, 7, 7.5, 8, 8.5, 9, 10, 12, 13, and 24 hours±5 minutes post-dose. The 24-hr post-dose blood sample was taken before administration of the 2nd dose of study drug. After the 2nd, 3rd, 4th, 5th and 6th dose of study drug (Days 2-6), blood samples were collected at pre-dose (within 10 minutes prior to dosing), and at 1.5 and 8 hours±5 minutes post-dose. The pre-dose sample on Day 2 was the same as the 24-hour post-dose sample after the 1st dose. After the last dose (7th dose) of study drug (Day 7), blood samples for PK were collected at pre-dose (within 10 minutes prior to dosing), and at 0.5, 1, 1.5, 2, 2.5, 3, 4.5, 6, 7, 7.5, 8, 8.5, 9, 10, 12, 13, 24, 36, 48, 60 and 72 hours±5 minutes post-dose.

The nature of data set [8]: Solubility in IPA/IPAc inferred from recrystallization. Type of data set: physicochemical. Particulars: isopropylalcohol/isopropylacetate, from recrystallization yields. The text has this: In one embodiment, the conjugate d/l-MPH-CO2CH2-nicotinoyl-L-Ser was recrystallized from a mixture (1:1) of isopropylalcohol (IPA) and isopropylacetate (IPAc) yielding approximately 45.2% of product (purity of about 98% by HPLC). A similar amount of d-MPH-CO2CH2-nicotinoyl-L-Ser recrystallized from IPA and IPAc (2:1) yielded approximately 81.5% of product (purity of about 97.6% by HPLC).

The structures appear in SMILES notation. Structures can show the parent of a compound that is named as a salt. Where two headings read alike, the source gives them in different places.

Regarding `COC(=O)[C@H](c1ccccc1)[C@H]1CCCCN1.Cl` [d-MPH•HCl, (2R,2′R)-(+)-Methylphenidate hydrochloride], in data set [1], the AUC0-1 h stood at 312.6 ng·h/mL, the AUC0-2 h was 534.9 ng·h/mL, the highest concentration (Cmax) came to 541.8 ng/mL and the Tmax worked out at 24 min. Further, in data set [2], the Tmax was 24 min. Moreover, the time to peak (Tmax) result in data set [2] (listed as unconjugated d-methylphenidate) is reported as “about 0.4 h”. In addition, in data set [3] (analyte d-MPH), the area under the curve (AUC) was determined as 119.2 ng·h/mL, the time of peak concentration (Tmax) came to 24 min and the highest concentration (Cmax) was 98.9 ng/mL. Further, in data set [3], the “d:l Ratio AUC” value is reported as approximately 124% and the “d:l Ratio Cmax” value was “about 192%”. For the same compound, in data set [4], the AUC0-1 h is 1110.8 ng·h/mL, the Cmax was 2561.6 ng/mL and the Tmax came to 6 min.

Turning to `COC(=O)[C@H](c1ccccc1)[C@H]1CCCCN1C(=O)OC[n+]1cccc(C(=O)N[C@@H](CO)C(=O)O)c1` [d-MPH-CO2CH2-nicotinoyl-L-Ser, d-methylphenidate-CO2CH2-nicotinoyl-L-Ser], the “Plasma concentration of intact prodrug at 24 hours post dose” value in data set [5] is recorded as “about 0”. Moreover, in data set [5] (N=24), the “Time until which plasma concentrations of intact prodrug increased” value was “about 2 hours”.

On to `COC(=O)[C@H](c1ccccc1)[C@H]1CCCCN1C(=O)OC[n+]1cccc(C(=O)N[C@H](C(=O)O)[C@@H](C)O)c1.[Cl-]` [d-MPH-CO2CH2-nicotinoyl-L-Thr, 3-(((1S,2R)-1-carboxy-2-hydroxypropyl)carbamoyl)-1-(((R)-2-(2-(R)-methoxy-2-oxo-1-phenylethyl)piperidine-1-carbonyloxy)methyl)pyridium chloride], for which, in data set [3], the “d:l Ratio AUC” value is recorded as approximately 53% and the “d:l Ratio Cmax” value is on record as “about 58%”.

As for `COC(=O)C(c1ccccc1)C1CCCCN1C(=O)OC[n+]1cccc(C(=O)N[C@@H](CO)C(=O)[O-])c1` (stereo partly drawn) [MPH-CO2CH2-nicotinoyl-L-Ser], in data set [3], the “d:l Ratio Tmax” value is 182%, the “d:l Ratio AUC” value worked out at 73% and the “d:l Ratio Cmax” value worked out at 94%.

`COC(=O)[C@H](c1ccccc1)[C@H]1CCCCN1C(=O)OC[n+]1cccc(C(=O)N[C@@H](CO)C(=O)O)c1.[Cl-]` [d-MPH-CO2CH2-nicotinoyl-L-Ser chloride, 3-((S)-1-carboxy-2-hydroxyethylcarbamoyl)-1-(((R)-2-(2-(R)-methoxy-2-oxo-1-phenylethyl)piperidine-1-carbonyloxy)methyl)pyridium chloride]: in data set [6] (analyte d-MPH, single oral 60 mg), the “peak d-MPH exposure in the fed state vs fasted” value is reported as “slightly higher”. The AUC(0-inf) was 309 ng·h/mL in data set [6] (human, oral, 60 mg, Fasted) and 84.2 ng·h/mL in data set [6] (human, oral, 60 mg, Fed). Moreover, the half-life in data set [6] (human, oral, 60 mg, Fasted) is 350 min; in data set [6] (human, oral, 60 mg, Fed) it was 366 min. Besides, the AUC(0-t) stood at 300 ng·h/mL in data set [6] (human, oral, 60 mg, Fasted, read-out: AUC0-24 hr); 306 ng·h/mL in data set [6] (human, oral, 60 mg, Fasted, read-out: AUC0-last); 77.9 ng·h/mL in data set [6] (human, oral, 60 mg, Fed, read-out: AUC0-24 hr); 81.1 ng·h/mL in data set [6] (human, oral, 60 mg, Fed, read-out: AUC0-last). Also, the Tmax stood at 30 min in data set [6] (human, oral, 60 mg, Fasted) and 180 min in data set [6] (human, oral, 60 mg, Fed). The highest concentration (Cmax) in data set [6] (human, oral, 60 mg, Fed) was determined as 10.2 ng/mL; in data set [6] (Fasted, single oral 60 mg, human adults), 75.6 ng/mL. Besides, the concentration at 24 h in data set [7] (both sexes, human, plasma, oral dose mixtures, adult humans, FIGS. 14-25, read-out: Plasma concentration of intact d-MPH-CO2CH2-nicotinoyl-L-Ser chloride at 24 hours post dose) was less than 1 ng/mL. Besides, the “Accumulation of intact d-MPH-CO2CH2-nicotinoyl-L-Ser chloride in the bloodstream after the 7th dose” value in data set [7] (dose 1 vs dose 7 plasma concentrations at 24 hours) is on record as “negligible”. In addition, the “Time until which plasma concentrations of intact d-MPH-CO2CH2-nicotinoyl-L-Ser chloride increased” value in data set [7] (oral dose mixtures, adult humans, FIGS. 14-25) is given as “about 2 hours”.

`COC(=O)C(c1ccccc1)C1CCCCN1` (stereo not drawn) [unconjugated MPH, methyl 2-phenyl-2-(piperidin-2-yl)acetate]: in data set [3], the “d:l Ratio Tmax” value is listed as 62%.

For the compound `COC(=O)C(c1ccccc1)C1CCCCN1C(=O)OC[n+]1cccc(C(=O)N[C@H](C(=O)[O-])[C@@H](C)O)c1` (stereo partly drawn) [MPH-CO2CH2-nicotinoyl-L-Thr], in data set [3], the “d:l Ratio Tmax” value stood at 57%, the “d:l Ratio AUC” value was 53% and the “d:l Ratio Cmax” value was 58%.

`COC(=O)[C@@H](c1ccccc1)[C@@H]1CCCCN1C(=O)OC[n+]1cccc(C(=O)N[C@@H](CO)C(=O)[O-])c1` [l-MPH-CO2CH2-nicotinoyl-L-Ser]: the “solubility in IPA/IPAc compared to d-MPH-CO2CH2-nicotinoyl-L-Ser” value in data set [8] is on record as “significantly higher”.

Take `COC(=O)[C@@H](c1ccccc1)[C@@H]1CCCCN1` [l-MPH•HCl]: in data set [3] (analyte l-MPH), the AUC came to 96.4 ng·h/mL, the Tmax was determined as 42 min and the peak concentration (Cmax) is on record as 51.5 ng/mL.

By Cmax is commonly meant the peak of the concentration-time curve. In general, Tmax refers to the time from dosing to the highest level. In general, AUC refers to concentration integrated over time. A lower AUC goes with less exposure. As a reminder, the AUC(0-inf) is the area under the concentration-time curve extrapolated to infinity. One may read the half-life as the time in which the quantity being followed falls by half. Lower therefore signals fast loss.

These data come from patent publication US11505537B2, “Compositions comprising methylphenidate-prodrugs, processes of making and using the same” (KemPharm, Inc., priority 2016, dated 2022).
